# Data taken from US11896593B2, “Sulfamate derivative compounds for use in treating or alleviating a psychiatric disorder” (Bio-Pharm Solutions Co., Ltd., priority 2020, dated 2024).
# System: ICR male mice
# Assay: Light dark choice test
# Type: in vivo
# Settings: mouse, 60 minutes before testing
# Description: The light-dark choice test is a model for anxiety-like behavior. This test is based on innate aversion of rodents to brightly lit areas and their voluntary exploration behaviors for light stress factors, that is, new environments and light. ICR male mice (30 g to 35 g) were purchased from Orient Bio Korea Co. (Korea) and allowed to acclimatize for 1 week before being tested in a controlled animal facility (temperature 22±2° C., humidity 55±5%). When treatment began, the weight of the animals was 35±5% g. The test compound for oral administration was dissolved in 30% PEG400 and administered at a dose per body weight of 10 mL/kg 60 minutes before testing. The test compound for intraperitoneal administration was dissolved in 20% Tween80 and administered at a dose per body weight of 10 mL/kg 60 minutes before testing. The control group was provided with a corresponding vehicle. An acryl box (45 cm×27 cm×27 cm) was composed of 2 chambers (white color: ⅔ of the box, black color: ⅓ of the box) connected by an opening (7.5 cm×7.5 cm) located at the bottom surface of the center of a partition wall. Each mouse was placed in the white part of the box and allowed to roam freely for a 5-minute session. At the end of the session, mice were returned to their habitat cage, and the experimental box was cleanly wiped with a 70% alcohol solution. All experiments were videotaped. After testing, all video recordings were analyzed. The obtained results are shown in Table 5 below (Reference; Bourin, M., Hascoet, M. 2003. The mouse light/dark box test. European Journal of Pharmacology, 463, 55-65. Bouwknecht, J A., Paylor, R. 2002. Behavioral and physiological mouse assays for anxiety: a survey in nine mouse strains. Behavioural Brain Research, 136, 489-501.).
structure (smiles),measurement,setting,value
"CC1(C)O[C@@H](COS(N)(=O)=O)[C@H](c2ccccc2Cl)O1 [Example 2, ((4S,5S)-5-(2-chlorophenyl)-2,2-dimethyl-1,3-dioxolan-4-yl)methyl sulfamate]","White box duration time (sec.)/5 minutes, Treatment","intraperitoneal, 10 mg/kg",189.0 ± 10.8 sec./5 minutes
same,"White box duration time (sec.)/5 minutes, Treatment","intraperitoneal, 30 mg/kg",208.1 ± 13.2 sec./5 minutes
same,"White box duration time (sec.)/5 minutes, Treatment","intraperitoneal, 40 mg/kg",219.2 ± 13.3 sec./5 minutes
same,"White box duration time (sec.)/5 minutes, Treatment","oral, 10 mg/kg",136.4 ± 4.2 sec./5 minutes
same,"White box duration time (sec.)/5 minutes, Treatment","oral, 30 mg/kg",140.0 ± 12.3 sec./5 minutes
same,"White box duration time (sec.)/5 minutes, Treatment","oral, 40 mg/kg",193.1 ± 8.7 sec./5 minutes
